Measured values: patent EP2970215B1, “PYRROLIDINE DERIVATIVES, PHARMACEUTICAL COMPOSITIONS CONTAINING THEM, AND THEIR USE IN THERAPY” (AbbVie Deutschland GmbH & Co. KG, priority 2013, dated 2014)

Biological target: T1, human GlyT1c transporter (Homo sapiens, UniProt P48067)
T1 construct: expressed in transfected cells; host or cells: CHO cells (recombinant; line hGlyT1c_5_CHO is named for the uptake assay)
T1 sequence (P48067 1-706): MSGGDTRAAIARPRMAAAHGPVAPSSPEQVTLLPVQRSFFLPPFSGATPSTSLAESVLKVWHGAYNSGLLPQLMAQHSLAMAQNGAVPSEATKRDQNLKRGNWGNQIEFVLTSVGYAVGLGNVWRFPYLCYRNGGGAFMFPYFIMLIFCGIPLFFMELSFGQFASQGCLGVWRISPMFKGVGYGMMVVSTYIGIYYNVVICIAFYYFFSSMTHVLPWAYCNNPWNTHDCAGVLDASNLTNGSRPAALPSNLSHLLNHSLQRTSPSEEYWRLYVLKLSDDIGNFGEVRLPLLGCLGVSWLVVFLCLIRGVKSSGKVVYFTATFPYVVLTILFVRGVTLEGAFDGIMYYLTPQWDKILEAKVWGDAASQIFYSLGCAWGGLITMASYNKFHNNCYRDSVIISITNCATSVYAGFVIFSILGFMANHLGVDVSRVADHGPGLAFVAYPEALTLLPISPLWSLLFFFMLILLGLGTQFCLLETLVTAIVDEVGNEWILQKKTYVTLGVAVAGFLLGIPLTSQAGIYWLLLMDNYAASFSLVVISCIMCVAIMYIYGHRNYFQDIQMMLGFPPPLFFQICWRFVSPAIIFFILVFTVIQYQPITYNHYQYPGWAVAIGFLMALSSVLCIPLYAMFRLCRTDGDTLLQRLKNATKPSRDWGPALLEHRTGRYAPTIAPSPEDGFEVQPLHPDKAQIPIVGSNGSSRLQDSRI
Assay: Radioligand binding assay using recombinant CHO cell membranes expressing human GlyT1
Conditions: radioligand binding to human GlyT1c transporter-expressing membranes
Source text: 2. Radioligand binding assays using recombinant CHO cell membranes expressing human GlyT1: […]

With `Cn1cnc(S(=O)(=O)N2C[C@@H](Nc3ccc(Cl)cc3)[C@H](c3ccccc3F)C2)c1` (relative stereo) [Example 202, trans-N-(4-chlorophenyl)-4-(2-fluorophenyl)-1-[(1-methyl-1H-imidazol-4-yl)sulfonyl]pyrrolidin-3-amine] as the compound, how does the Ki read?
Its Ki is no more than 1 µM.

With `Cn1cnc(S(=O)(=O)N2C[C@@H](Nc3cccc(C(F)(F)F)n3)[C@H](c3ccccc3F)C2)c1` (relative stereo) [Example 203, N-{trans-4-(2-fluorophenyl)-1-[(1-methyl-1H-imidazol-4-yl)sulfonyl]pyrrolidin-3-yl}-6-(trifluoromethyl)pyridin-2-amine] as the compound, how does the Ki read?
Its Ki is no more than 10 µM.

`Cn1cnc(S(=O)(=O)N2C[C@@H](Nc3ccnc(C(F)(F)F)c3)[C@H](c3ccccc3F)C2)c1` (relative stereo) [Example 204, N-{trans-4-(2-fluorophenyl)-1-[(1-methyl-1H-imidazol-4-yl)sulfonyl]pyrrolidin-3-yl}-2-(trifluoromethyl)pyridin-4-amine] was tested. Which Ki did it give?
The Ki was no more than 0.1 µM.

Which Ki does the source give for `Cn1cnc(S(=O)(=O)N2C[C@@H](CO)[C@H](c3ccc(F)cc3)C2)c1` (relative stereo) [Example 206, {Trans-4-(4-fluorophenyl)-1-[(1-methyl-1H-imidazol-4-yl)sulfonyl]pyrrolidin-3-yl}methanol] here?
Its Ki is no more than 10 µM.

With `Cn1cnc(S(=O)(=O)N2C[C@@H](Nc3ccccn3)[C@H](c3ccccc3)C2)c1` (relative stereo) [Example 207, N-{trans-1-[(1-methyl-1H-imidazol-4-yl)sulfonyl]-4-phenylpyrrolidin-3-yl}pyridin-2-amine] as the compound, how does the Ki read?
The Ki was no more than 10 µM.

How did the Ki turn out when `Cn1cnc(S(=O)(=O)N2C[C@@H](Nc3cccnc3)[C@H](c3ccccc3)C2)c1` (relative stereo) [Example 208, N-{trans-1-[(1-methyl-1H-imidazol-4-yl)sulfonyl]-4-phenylpyrrolidin-3-yl}pyridin-3-amine] was run?
The Ki was no more than 10 µM.

How did the Ki turn out when `Cn1cnc(S(=O)(=O)N2C[C@@H](Nc3ccncc3)[C@H](c3ccccc3)C2)c1` (relative stereo) [Example 209, N-{trans-1-[(1-methyl-1H-imidazol-4-yl)sulfonyl]-4-phenylpyrrolidin-3-yl}pyridin-4-amine] was run?
Its Ki is no more than 10 µM.

`Cn1cnc(S(=O)(=O)N2C[C@@H](Nc3cccc(C(F)(F)F)n3)[C@H](c3ccccc3)C2)c1` (relative stereo) [Example 210, N-{trans-1-[(1-methyl-1H-imidazol-4-yl)sulfonyl]-4-phenylpyrrolidin-3-yl}-6-(trifluoromethyl)pyridin-2-amine] was tested. Which Ki did it give?
The Ki was no more than 10 µM.

With `Cn1cnc(S(=O)(=O)N2C[C@@H](Nc3ccnc(C(F)(F)F)c3)[C@H](c3ccccc3)C2)c1` (relative stereo) [Example 211, N-{trans-1-[(1-methyl-1H-imidazol-4-yl)sulfonyl]-4-phenylpyrrolidin-3-yl}-2-(trifluoromethyl)pyridin-4-amine] as the compound, how does the Ki read?
The Ki was no more than 1 µM.

`Cn1cnc(S(=O)(=O)N2C[C@@H](Nc3cc(C(F)(F)F)ccn3)[C@H](c3ccccc3)C2)c1` (relative stereo) [Example 212, N-{trans-1-[(1-methyl-1H-imidazol-4-yl)sulfonyl]-4-phenylpyrrolidin-3-yl}-4-(trifluoromethyl)pyridin-2-amine] was tested. Which Ki did it give?
Its Ki is no more than 0.1 µM.

Which Ki does the source give for `Cn1cnc(S(=O)(=O)N2C[C@@H](Nc3cncc(C(F)(F)F)c3)[C@H](c3ccccc3)C2)c1` (relative stereo) [Example 213, N-{trans-1-[(1-methyl-1H-imidazol-4-yl)sulfonyl]-4-phenylpyrrolidin-3-yl} -5 - (trifluoromethyl)pyridin-3-amine] here?
The Ki was no more than 1 µM.

How did the Ki turn out when `Cn1cnc(S(=O)(=O)N2C[C@@H](Nc3ccc(F)c(Cl)c3)[C@H](c3ccccc3)C2)c1` (relative stereo) [Example 215, trans-N-(3-chloro-4-fluorophenyl)-1-[(1-methyl-1H-imidazol-4-yl)sulfonyl]-4-phenylpyrrolidin-3-amine] was run?
Its Ki is no more than 0.1 µM.

How did the Ki turn out when `Cn1cnc(S(=O)(=O)N2C[C@@H](Nc3ccc(F)c(F)c3)[C@H](c3ccccc3)C2)c1` (relative stereo) [Example 216, trans-N-(3,4-difluorophenyl)-1-[(1-methyl-1H-imidazol-4-yl)sulfonyl]-4-phenylpyrrolidin-3-amine] was run?
The Ki was no more than 1 µM.

With `Cn1cnc(S(=O)(=O)N2C[C@@H](Nc3ccc(Cl)c(C(F)(F)F)c3)[C@H](c3ccccc3)C2)c1` (relative stereo) [Example 217, trans-N-[4-chloro-3-(trifluoromethyl)phenyl]-1-[(1-methyl-1H-imidazol-4-yl)sulfonyl]-4-phenylpyrrolidin-3-amine] as the compound, how does the Ki read?
Its Ki is no more than 1 µM.

With `Cn1cnc(S(=O)(=O)N2C[C@@H](Nc3ccc(Cl)c(Cl)c3)[C@H](c3ccccc3)C2)c1` (relative stereo) [Example 218, trans-N-(3,4-dichlorophenyl)-1-[(1-methyl-1H-imidazol-4-yl)sulfonyl]-4-phenylpyrrolidin-3-amine] as the compound, how does the Ki read?
The Ki was no more than 1 µM.

Which Ki does the source give for `Cn1cnc(S(=O)(=O)N2C[C@@H](Nc3cc(F)c(F)c(Cl)c3)[C@H](c3ccccc3)C2)c1` (relative stereo) [Example 219, trans-N-(3-chloro-4,5-difluorophenyl)-1-[(1-methyl-1H-imidazol-4-yl)sulfonyl]-4-phenylpyrrolidin-3-amine] here?
The Ki was no more than 10 µM.

For `CC(C)c1cccc(N[C@@H]2CN(S(=O)(=O)c3cn(C)cn3)C[C@H]2c2ccccc2)c1` (relative stereo) [Example 220, trans-1-[(1-methyl-1H-imidazol-4-yl)sulfonyl]-4-phenyl-N-[3-(propan-2-yl)phenyl]pyrrolidin-3-amine], which Ki is on record?
Its Ki is no more than 0.01 µM.

With `Cn1cnc(S(=O)(=O)N2C[C@@H](Nc3cccc(C(C)(C)C)c3)[C@H](c3ccccc3)C2)c1` (relative stereo) [Example 221, trans-N-(3-tert-butylphenyl)-1-[(1-methyl-1H-imidazol-4-yl)sulfonyl] -4-phenylpyrrolidin-3-amine] as the compound, how does the Ki read?
Its Ki is no more than 1 µM.

For `Cn1cnc(S(=O)(=O)N2C[C@@H](Nc3cccc(C(F)(F)F)c3F)[C@H](c3ccccc3)C2)c1` (relative stereo) [Example 222, trans-N-[2-fluoro-3-(trifluoromethyl)phenyl]-1-[(1-methyl-1H-imidazol-4-yl)sulfonyl]-4-phenylpyrrolidin-3-amine], which Ki is on record?
The Ki was no more than 1 µM.

How did the Ki turn out when `Cn1cnc(S(=O)(=O)N2C[C@@H](Nc3cc(F)cc(C(F)(F)F)c3)[C@H](c3ccccc3)C2)c1` (relative stereo) [Example 223, trans-N-[3-fluoro-5-(trifluoromethyl)phenyl]-1-[(1-methyl-1H-imidazol-4-yl)sulfonyl]-4-phenylpyrrolidin-3-amine] was run?
Its Ki is no more than 0.1 µM.

`Cn1cnc(S(=O)(=O)N2C[C@@H](Nc3cc(C(F)(F)F)ccc3F)[C@H](c3ccccc3)C2)c1` (relative stereo) [Example 224, trans-N-[2-fluoro-5-(trifluoromethyl)phenyl]-1-[(1-methyl-1H-imidazol-4-yl)sulfonyl]-4-phenylpyrrolidin-3-amine] was tested. Which Ki did it give?
Its Ki is no more than 1 µM.

For `Cn1cnc(S(=O)(=O)N2C[C@@H](Nc3cc(F)cc(Cl)c3)[C@H](c3ccccc3)C2)c1` (relative stereo) [Example 225, trans-N-(3-chloro-5-fluorophenyl)-1-[(1-methyl-1H-imidazol-4-yl)sulfonyl]-4-phenylpyrrolidin-3-amine], which Ki is on record?
Its Ki is no more than 10 µM.

`Cn1cnc(S(=O)(=O)N2C[C@@H](Nc3cccc(OC(F)(F)F)c3)[C@H](c3ccccc3)C2)c1` (relative stereo) [Example 226, trans-1-[(1-methyl-1H-imidazol-4-yl)sulfonyl]-4-phenyl-N-[3-(trifluoromethoxy)phenyl]pyrrolidin-3-amine] was tested. Which Ki did it give?
Its Ki is no more than 0.01 µM.

With `Cn1cnc(S(=O)(=O)N2C[C@@H](Nc3nccc(C(F)(F)F)n3)[C@H](c3ccccc3)C2)c1` (relative stereo) [Example 227, N-{trans-1-[(1-methyl-1H-imidazol-4-yl)sulfonyl]-4-phenylpyrrolidin-3-yl}-4-(trifluoromethyl)pyrimidin-2-amine] as the compound, how does the Ki read?
The Ki was no more than 10 µM.

With `Cn1cnc(S(=O)(=O)N2C[C@@H](Nc3ccc4cccnc4c3)[C@H](c3ccccc3)C2)c1` (relative stereo) [Example 228, N-{trans-1-[(1-methyl-1H-imidazol-4-yl)sulfonyl]-4-phenylpyrrolidin-3-yl}quinolin-7-amine] as the compound, how does the Ki read?
Its Ki is no more than 10 µM.

How did the Ki turn out when `Cn1cnc(S(=O)(=O)N2C[C@@H](Nc3ccc4ncccc4c3)[C@H](c3ccccc3)C2)c1` (relative stereo) [Example 229, N-{trans-1-[(1-methyl-1H-imidazol-4-yl)sulfonyl]-4-phenylpyrrolidin-3-yl}quinolin-6-amine] was run?
Its Ki is no more than 10 µM.

With `Cn1cnc(S(=O)(=O)N2C[C@@H](Nc3ccc4cnccc4c3)[C@H](c3ccccc3)C2)c1` (relative stereo) [Example 230, N-{trans-1-[(1-methyl-1H-imidazol-4-yl)sulfonyl]-4-phenylpyrrolidin-3-yl}isoquinolin-6-amine] as the compound, how does the Ki read?
The Ki was no more than 10 µM.

Which Ki does the source give for `Cn1cnc(S(=O)(=O)N2C[C@@H](Nc3cccc(F)c3F)[C@H](c3ccccc3)C2)c1` (relative stereo) [Example 231, trans-N-(2,3-difluorophenyl)-1-[(1-methyl-1H-imidazol-4-yl)sulfonyl]-4-phenylpyrrolidin-3-amine] here?
Its Ki is no more than 1 µM.
